From patent publication US20140113958A1, “HCV Combination Therapy” (priority 2011, published 2014)
Values joined by “and” are separate entries in the source; they are usually repeats but may differ in a detail not shown here. Identical values can stand only once. “Also recorded” adds a separate entry of the source. Like-named read-outs stand apart in the source and are kept apart here.

Tests used:
[1] = system: HCV genotype Ib replicon (I389luc-ubi-neo/NS3-3′/ET) in Huh-luc/neo-ET cells; assay type: cell-based
Description: (§1) The anti-viral efficacy and cellular toxicity of non-transfected antimiR oligonucleotide in combination with approved and experimental anti-HCV therapeutics (e.g. NM283, 2′-C-methylcytidine, and/or VX-222) (or other NS5B polymerase inhibitors) was determined in the reporter cell line Huh-luc/neo-ET. This cell line harbors the persistently replicating I389luc-ubi-neo/NS3-3′/ET replicon containing the firefly luciferase gene-ubiquitin-neomycin phosphotransferase fusion protein and EMCV IRES driven NS3-5B HCV coding sequences containing the ET tissue culture adaptive mutations (E1202G, T1208I, and K1846T). Eight dilutions of non-transfected antimiR oligonucleotide (bracketing the calculated EC50) were evaluated in triplicate on duplicate sets of three plates with five dilutions of each of the control compounds (bracketing the calculated EC50). One set of plates was used for the determination of cellular toxicity and the other set of plates was used for the determination of anti-viral efficacy. The efficacy and toxicity results was quantified with firefly luciferase activity and XTT dye reduction, respectively, and the results of the assay is imported into the Prichard and Shipman MacSynergy II software program. The MacSynery II analysis includes calculation of the dose response of the two (or more) compounds when used alone followed by calculation of the expected additive level of antiviral inhibition or toxicity when the compounds are used together based on the individual dose response curves. The expected level of activity at each of the concentration data points was compared to the experimentally determined antiviral activity in the assay. The expected activity was subtracted from the realized activity, yielding a negative, zero or positive value. These values are plotted as a three dimensional representation of the data and the result is reported as a two-factor value, expressing the combined average above the expected level of activity (synergy volume) and the combined average below the expected level of activity (antagonism volume). Combination analysis was performed two or more times for each pair of test compound and control substance.
(§2) The reporter cell line Huh-luc/neo-ET was obtained from Dr. Ralf Bartenschlager (Department of Molecular Virology, Hygiene Institute, University of Heidelberg, Germany) by ImQuest BioSciences. This cell line harbors the persistently replicating 1389luc-ubi-neo/NS3-3′IET replicon containing the firefly luciferase gene-ubiquitinneomycin phosphotransferase fusion protein and EMCV IRES driven NS3-5B HCV coding sequences containing the ET tissue culture adaptive mutations (E 1202G, T12081, and KI846T). A stock culture of the Huh-luc/neo-ET was expanded by culture in DMEM supplemented with 10% FBS, 2 mM glutamine, penicillin (100 IU/mL)/streptomycin (100 f·Ig/mL) and IX nonessential amino acids plus I mg/ml G418. Prior to plating, the cells were split 1:4 and cultured for two passages in the same medium plus 250 f·Ig/mL G418. The cells were treated with trypsin and enumerated by staining with trypan blue and seeded into 96-well tissue culture plates at a cell culture density 5.0×10^3 cells per well in a volume of 85 f·IL per well and incubated at […] in an environment of 5% CO2 for 24 hours. Six plates were established for the determination of combination efficacy (EC50) and cytotoxicity (TC50) for each of the compound combinations (three plates each for efficacy and toxicity). Following the 24 hour incubation, eight 2-fold serial dilutions of SPC3649 in cell culture medium without G418 were prepared (final in well high test concentration of 1.20 μM to 2.40 μM) and added to the cells and five 2-fold or 5-fold serial dilutions of control compounds in cell culture medium without G418 were prepared and added to the cells.

[2] = system: Huh-luc/neo-ET cells; test: Cellular toxicity by XTT dye reduction in Huh-luc/neo-ET cells
Description: as §1
as §2, with “Following the 24 hour incubation, eight 2-fold serial dilutions of SPC3649 in cell culture medium without G418 were prepared (final in well high test concentration of 1.20 μM to 2.40 μM) and added to the cells and five 2-fold or 5-fold serial dilutions of control compounds in cell culture medium without G418 were prepared and added to the cells.” left out

[3] = system: Huh-luc/neo-ET HCV genotype Ib replicon cells; assay type: cell-based; settings: selection with G418, 28 days
Description: Cell culture and Assay setup: The reporter cell line Huh-luc/neo-ET was obtained and prepare as described previously. Cells were plated into 10 cm tissue culture dishes at a density of 3×10^5 cells per plate in culture medium containing 250 μg/ml G418 and incubated for 24 hours at 37° C. in an environment of 5% C02. Following the 24 hour incubation, dilutions of SPC3649, SPC4729, or telaprevir were prepared in cell culture medium (as above) with 750 μg/ml G418. Each of the dilutions was added to duplicate plates and the plates were incubated at 37° C. in an environment of 5% CO^2. Two additional plates received cell culture medium with 750 μg/ml G418 as a no-treatment control. […] The final concentration of SPC4729 was 10.0 μM. […] Following 28 days of passage, one set of dishes was stained with crystal violet and the other set of plates was utilized for expansion and establishment of resistant cell culture stocks.
Huh-luc/neo-ET HCY genotype Ib replicon cells were cultured under selective pressure in the presence of 750 μg/mL G4 I8 with and without four independent fixed concentrations of SPC3649 anti-miR oligonucleotide, or telaprevir, or one concentration of scrambled oligonucleotide SPC4729 for 28 days in tissue culture plates. Duplicate tissue culture dishes were established and maintained for each culture condition. Medium was replaced bi-weekly during the 28 days of culture and the cells were split at the time of medium replenishment to maintain a confluent cell culture monolayer. Following four weeks in culture, cells were either fixed with methanol and stained with crystal violet or expanded for subsequent phenotypic and genotypic characterization.

[4] = system: HCV genotype 1b replicon NS3 A156T; assay type: cell-based; settings: EC50 mutant / EC50 wild-type; mean of two experiments (individual values)
Description: (§3) The in vitro antiviral of miravirsen was evaluated against wild-type HCV genotype 1b replicon and HCV genotype 1b replicons constructed to contain key amino acid substitutions in NS3 protease (A156T, R155K), NS5B polymerase (S282T, M423I) and NS5A protein (Y93H) in transient transfection assays utilizing Huh 7 cells. […] Huh 7 cells were transfected with either the wild-type or the mutant RNA constructs by electroporation. Luciferase activity was measured 72 hours after compound treatment and EC50 values determined from dose-response curves. Fold resistance was expressed as the ratio of the EC50 for mutant HCV replicon to the EC50 for wild-type HCV replicon.
(§4) The in vitro antiviral of miravirsen was evaluated against wild-type HCV genotype 1b replicon and HCV replicons constructed to contain key amino acid substitutions in NS3 protease (A156T, R155K), NS5B polymerase (S282T, M423I) and NS5A protein (Y93H) in transient transfection assays. […] Huh 7 cells were transfected with either the wild type or the mutant RNA constructs by electroporation. Luciferase activity was measured 72 hours after compound treatment and EC50 values determined from dose-response curves. Fold resistance was expressed as the ratio of the EC50 for mutant HCV replicon to the EC50 for wild-type HCV replicon. Results are expressed as the mean of two individual experiments. In an initial set of experiments, the standard protocol was modified by adding compounds 24 hours after electroporation. […] In a third experiment cells were pretreated with miravirsen for 24 hours before electroporation with wild-type RNA constructs to determine if preincubation could result in increased miravirsen antiviral activity.

[5] = system: HCV genotype 1b replicon NS3 R155K; assay type: cell-based; settings: EC50 mutant / EC50 wild-type; mean of two experiments (individual values)
Description: as §3, §4

[6] = system: HCV genotype 1b replicon NS5A Y93H; assay type: cell-based; settings: EC50 mutant / EC50 wild-type; mean of two experiments (individual values)
Description: as §3, §4

[7] = system: HCV genotype 1b replicon NS5B M423I; assay type: cell-based; settings: EC50 mutant / EC50 wild-type; mean of two experiments (individual values)
Description: as §3, §4

[8] = system: HCV genotype 1b replicon NS5B S282T; assay type: cell-based; settings: EC50 mutant / EC50 wild-type, mean of two experiments (individual values)
Description: as §3, §4

[9] = in combination with ribavirin, 95% confidence level
[10] = second drug in combination with miravirsen (SPC3649), 95% confidence interval, median (≧3 experiments) or individual values
[11] = second drug in combination with miravirsen (SPC3649), overall
[12] = second drug in combination with miravirsen (SPC3649), 95% confidence interval, median or individual values

5′-Ts.^ocsAs.^otsas.^mCs.^oTs.^oastsAs.^otsGs.^oas.^mCs.^oA.^o-3′ [SPC4729]
Efficacy, Synergy vol [1]: 0.00/−177.6 μM^2% | overall antiviral interaction ([1]; in combination with ribavirin): antagonistic | Efficacy, Antag Vol ([1]; in combination with ribavirin, 95% confidence level, individual values): 0.00/−177.6 μM^2% | impact of combination on in vitro cytotoxicity ([2]; in combination with ribavirin): slight higher cytotoxicity | Cytotoxicity, Antag Vol [2, 9]: −44.3 μM^2% | Cytotoxicity, Synergy vol [2, 9]: 0.00 μM^2% | rate of cell expansion [3]: did not decrease the rate of cell expansion

C[C@@]1(O)[C@H](O)[C@@H](CO)O[C@H]1n1ccc(N)nc1=O [2′-C-Methylcytidine, 2′-C-methylcytidine]
interaction in individual assay replicates ([1]; in combination with SPC 3649, part of the replicates, listed as 2-methyl cytidine): positive interactions; also recorded: slightly antagonistic interaction | Efficacy, Antagonism vol [1, 10]: −27.6 μM^2% | Efficacy, Synergy vol [1, 10]: 0 μM^2% | Efficacy, Synergy vol ([1]; second drug in combination with miravirsen (SPC3649), 95% confidence interval, median (≧3 experiments) or individual values, listed as 2-methyl cytidine): 0.0 μM^2% | Interaction [1, 11]: Positive | Interaction ([1]; second drug in combination with miravirsen (SPC3649), overall, listed as 2-methyl cytidine): positive interaction | Cytotoxicity, Antagonism vol [2, 12]: −0.67 μM^2% | Cytotoxicity, Synergy vol [2, 12]: 0 μM^2% | fold change in susceptibility, NS3 A156T [4]: 0.9 (1.0, 0.8) fold | fold change in susceptibility, NS3 R155K [5]: 0.8 (1.0, 0.6) fold | fold change in susceptibility, NS5A Y93H [6]: 1.0 (1.2, 0.8) fold | fold change in susceptibility, NS5B M423I [7]: 1.0 (0.9, 1.1) fold | fold change in susceptibility, NS5B S282T ([8]; listed as 2′Me-C): 42.8 fold and 45.8 fold | fold change in susceptibility, NS5B S282T ([8]; listed as 2′Me—C): 45.8 (49.3, 42.3) fold

COC(=O)N[C@H](C(=O)N1CCC[C@H]1c1nc(-c2ccc(-c3ccc(-c4c[nH]c([C@@H]5CCCN5C(=O)[C@@H](NC(=O)OC)C(C)C)n4)cc3)cc2)c[nH]1)C(C)C [BMS 790052, Dimethyl (2S,2′S)-1,1′-((2S,2′S)-2,2′-(4,4′-(biphenyl-4,4′-diyl)bis(1H-imidazole-4,2-diyl))bis(pyrrolidine-2,1-diyl))bis(3-methyl-1-oxobutane-2,1-diyl)dicarbamate]
Efficacy, Antagonism vol [1, 10]: −25.5 μM^2% and −0.1 μM^2% and 0/−24.5; μM^2% and 18.46/−0.06 μM^2% | Interaction [1, 11]: Positive | Cytotoxicity, Antagonism vol [2, 12]: −21.9 μM^2% | Cytotoxicity, Synergy vol [2, 12]: 0 μM^2% | fold change in susceptibility, NS5A Y93H [6]: 29.9 fold and 29.9 (32.7, 27.0) fold

NC(=O)c1ncn([C@@H]2O[C@H](CO)[C@@H](O)[C@H]2O)n1 [Ribavirin, 1-[(2R,3R,4S,5R)-3,4-dihydroxy-5-(hydroxymethyl)oxolan-2-yl]-1H-1,2,4-triazole-3-carboxamide]
Interaction [1]: Positive | antagonism volume [1]: −292.6 μM^2% | interaction in individual assay replicates [1]: additive interaction; also recorded: highly antagonistic interaction

CC(C)(C)C#Cc1cc(N(C(=O)[C@H]2CC[C@H](C)CC2)[C@H]2CC[C@H](O)CC2)c(C(=O)O)s1 [VX-222]
Efficacy, Antagonism vol [1, 10]: −34.4 μM^2% and −4.27 μM^2% and 4.81/−34.44; μM^2% and 0.82/−4.27 μM^2% | Interaction [1, 11]: Positive | Cytotoxicity, Antagonism vol [2, 12]: −28.6 μM^2% and 0 μM^2% | Cytotoxicity, Synergy vol [2, 12]: 0 μM^2% | fold change in susceptibility, NS5B M423I [7]: 4.4 fold and 4.4 (3.6, 5.2) fold
